Legend:
Type in all cases: in vivo
Digitaria sanguinalis = assay: Control experiment, test in post-emergence stage; set-up: key: Level 10: completely dead; Level 9: above 90% growth inhibition rate; Level 8: above 80% growth inhibition rate; Level 7: above 70% growth inhibition rate; Level 6: above 60% growth inhibition rate; Level 5: above 50% growth inhibition rate; Level 4: above 30% growth inhibition rate; Level 3: above 20% growth inhibition rate; Level 2: above 10% growth inhibition rate; Level 1: above 1-10% growth inhibition rate; Level 0: no effect; settings: 5-6 leaf stage, 15 g/ha, observe time 25 day
Experimental: (§1) Test in post-emergence stage: seeds of monocotyledonous weeds and corn were put into a plastic pot loaded with soil, covered with 0.5-2 cm soil, and allowed to grow in good greenhouse environment. The test plants were treated at 5-6 leaf stage 4 weeks after sowing. The test compounds of the present invention were dissolved with acetone respectively, then added with tween 80, diluted by a certain amount of water to reach a certain concentration. The solution was sprayed to the plants by a spray tower. The test application rate was 15 g/ha and the observe time was 25 day.

Setaria viridis = assay: Control experiment, test in post-emergence stage; set-up: key: Level 10: completely dead; Level 9: above 90% growth inhibition rate; Level 8: above 80% growth inhibition rate; Level 7: above 70% growth inhibition rate; Level 6: above 60% growth inhibition rate; Level 5: above 50% growth inhibition rate; Level 4: above 30% growth inhibition rate; Level 3: above 20% growth inhibition rate; Level 2: above 10% growth inhibition rate; Level 1: above 1-10% growth inhibition rate; Level 0: no effect; settings: 5-6 leaf stage, 15 g/ha, observe time 25 day
Experimental: as §1

Echinochloa crus-galli [1] = assay: Control experiment, test in post-emergence stage; set-up: key: Level 10: completely dead; Level 9: above 90% growth inhibition rate; Level 8: above 80% growth inhibition rate; Level 7: above 70% growth inhibition rate; Level 6: above 60% growth inhibition rate; Level 5: above 50% growth inhibition rate; Level 4: above 30% growth inhibition rate; Level 3: above 20% growth inhibition rate; Level 2: above 10% growth inhibition rate; Level 1: above 1-10% growth inhibition rate; Level 0: no effect; settings: 5-6 leaf stage, 15 g/ha, observe time 25 day
Experimental: as §1

Corn = assay: Control experiment, test in post-emergence stage, crop safety; set-up: key: Level 10: completely dead; Level 9: above 90% growth inhibition rate; Level 8: above 80% growth inhibition rate; Level 7: above 70% growth inhibition rate; Level 6: above 60% growth inhibition rate; Level 5: above 50% growth inhibition rate; Level 4: above 30% growth inhibition rate; Level 3: above 20% growth inhibition rate; Level 2: above 10% growth inhibition rate; Level 1: above 1-10% growth inhibition rate; Level 0: no effect; settings: 5-6 leaf stage, 15 g/ha, observe time 25 day
Experimental: as §1

[2] = system: main crop (wheat, corn, rice, soybean, cotton, oilseed, millet and sorghum); assay: Post-emergence test experiment, main crops (Table 2); set-up: key: Level 10: completely dead; Level 9: above 90% growth inhibition rate; Level 8: above 80% growth inhibition rate; Level 7: above 70% growth inhibition rate; Level 6: above 60% growth inhibition rate; Level 5: above 50% growth inhibition rate; Level 4: above 30% growth inhibition rate; Level 3: above 20% growth inhibition rate; Level 2: above 10% growth inhibition rate; Level 1: above 1-10% growth inhibition rate; Level 0: no effect; settings: 3 weeks after spraying, greenhouse
Outline: (§2)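 Compounds, dissolved in acetone, mixed with Tween 80 and diluted in water, were sprayed post-emergence onto greenhouse-grown weeds and crops at the 2-3 leaf stage (2-3 weeks post-sowing). Plants then grown 3 more weeks in the greenhouse before evaluation.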

[3] = system: Monocotyledonous and dicotyledonous weed; assay: Post-emergence test experiment, weed control effect (Table 2); set-up: key to weed control effect, Setaria viridis (level) / weed control effect, Rorippa indica (level) / weed control effect, Abutilon theophrasti (level) / weed control effect, Echinochloa crus-galli (level) / weed control effect, Digitaria sanguinalis (level): Level 10: completely dead; Level 9: above 90% growth inhibition rate; Level 8: above 80% growth inhibition rate; Level 7: above 70% growth inhibition rate; Level 6: above 60% growth inhibition rate; Level 5: above 50% growth inhibition rate; Level 4: above 30% growth inhibition rate; Level 3: above 20% growth inhibition rate; Level 2: above 10% growth inhibition rate; Level 1: above 1-10% growth inhibition rate; Level 0: no effect; settings: 3 weeks after spraying, greenhouse
Outline: as §2

Monochoria vaginalis = assay: Weed control effect evaluation in transplanted rice field; set-up: key: Level 10: completely dead; Level 9: above 90% growth inhibition rate; Level 8: above 80% growth inhibition rate; Level 7: above 70% growth inhibition rate; Level 6: above 60% growth inhibition rate; Level 5: above 50% growth inhibition rate; Level 4: above 30% growth inhibition rate; Level 3: above 20% growth inhibition rate; Level 2: above 10% growth inhibition rate; Level 1: above 1-10% growth inhibition rate; Level 0: no effect; settings: transplanted rice field pot test, application rate 60 g/ha, 14 days after treatment
Experimental: (§3) Rice field soil was loaded into a 1/1,000,000 ha pot. The seeds of Echinochloa, Scirpus juncoides, Bidens tripartite and Sagittaria trifolia were sowed and gently covered with soil, then left to stand still in greenhouse in the state of 0.5-1 cm of water storage. The tuber of Sagittaria trifolia was planted in the next day or 2 days later. It was kept at 3-4 cm of water storage thereafter. The weeds were treated by dripping the WP or SC water diluents prepared according to the common preparation method of the compounds of the present invention with pipette homogeneously to achieve specified effective amount when Echinochloa, Scirpus juncoides and Bidens tripartite reached 0.5 leaf stage and Sagittaria trifolia reached the time point of primary leaf stage.
(§4) The fertility condition of Echinochloa, Scirpus juncoides, Bidens tripartite and Sagittaria trifolia 14 days after the treatment of the compound of the invention and the fertility condition of rice 21 days after the treatment of the compound of the invention respectively with the naked eye.
(§5) The seeds of Echinochloa crus-galli, Scirpus juncoides and Monochoria vaginalis were collected from Heilongjing and Jiangsu Province of China.

Echinochloa crus-galli [4] = assay: as above; set-up: key: Level 10: completely dead; Level 9: above 90% growth inhibition rate; Level 8: above 80% growth inhibition rate; Level 7: above 70% growth inhibition rate; Level 6: above 60% growth inhibition rate; Level 5: above 50% growth inhibition rate; Level 4: above 30% growth inhibition rate; Level 3: above 20% growth inhibition rate; Level 2: above 10% growth inhibition rate; Level 1: above 1-10% growth inhibition rate; Level 0: no effect; settings: transplanted rice field pot test, application rate 60 g/ha, 14 days after treatment
Experimental: as §3, §4, §5

Scirpus juncoides = assay: as above; set-up: key: Level 10: completely dead; Level 9: above 90% growth inhibition rate; Level 8: above 80% growth inhibition rate; Level 7: above 70% growth inhibition rate; Level 6: above 60% growth inhibition rate; Level 5: above 50% growth inhibition rate; Level 4: above 30% growth inhibition rate; Level 3: above 20% growth inhibition rate; Level 2: above 10% growth inhibition rate; Level 1: above 1-10% growth inhibition rate; Level 0: no effect; settings: transplanted rice field pot test, application rate 60 g/ha, 14 days after treatment
Experimental: as §3, §4, §5

Rice = assay: Transplanted rice safety evaluation; set-up: key: Level 10: completely dead; Level 9: above 90% growth inhibition rate; Level 8: above 80% growth inhibition rate; Level 7: above 70% growth inhibition rate; Level 6: above 60% growth inhibition rate; Level 5: above 50% growth inhibition rate; Level 4: above 30% growth inhibition rate; Level 3: above 20% growth inhibition rate; Level 2: above 10% growth inhibition rate; Level 1: above 1-10% growth inhibition rate; Level 0: no effect; settings: transplanted 3 leaf stage japonica rice, application rate 60 g/ha, 21 days after treatment
Experimental: In addition, the rice field soil that loaded into the 1/1,000,000 ha pot was leveled to keep water storage at 3-4 cm depth. The 3 leaf stage rice (japonica rice) was transplanted at 3 cm of transplanting depth the next day. The compound of the present invention was treated by the same way after 5 days of transplantation. The fertility condition of Echinochloa, Scirpus juncoides, Bidens tripartite and Sagittaria trifolia 14 days after the treatment of the compound of the invention and the fertility condition of rice 21 days after the treatment of the compound of the invention respectively with the naked eye.

SMILES | Digitaria sanguinalis (activity level) (Digitaria sanguinalis) | Setaria viridis (activity level) (Setaria viridis) | Echinochloa crus-galli (activity level) (Echinochloa crus-galli [1]) | Corn (safety, activity level) (Corn) | effect on crop, corn (level) ([2]; 30 g/ha) | effect on crop, rice (level) ([2]; 30 g/ha) | effect on crop, wheat (level) ([2]; 30 g/ha) | weed control effect, Abutilon theophrasti (level) ([3]; 30 g/ha) | weed control effect, Bidens pilosa (level) ([3]; 30 g/ha) | weed control effect, Digitaria sanguinalis (level) ([3]; 30 g/ha) | weed control effect, Echinochloa crus-galli (level) ([3]; 30 g/ha) | weed control effect, Rorippa indica (level) ([3]; 30 g/ha) | weed control effect, Setaria viridis (level) ([3]; 30 g/ha) | Weed control effect, Monochoria vaginalis (activity level) (Monochoria vaginalis) | Weed control effect, Echinochloa crus-galli (activity level) (Echinochloa crus-galli [4]) | Weed control effect, Scirpus juncoides (activity level) (Scirpus juncoides) | Rice (safety, activity level) (Rice) | other results
COCc1c(S(C)(=O)=O)ccc(C(=O)c2c(C)nn(C)c2O)c1Cl [A, reference compound] | 6 (Level 6: above 60% growth inhibition rate) | 7 (Level 7: above 70% growth inhibition rate) | 7 (Level 7: above 70% growth inhibition rate) | 1 (Level 1: above 1-10% growth inhibition rate) | – | – | – | – | – | – | – | – | – | – | – | – | – | –
Cc1nn(C)c(O)c1C(=O)c1ccc(S(C)(=O)=O)c(COCC(F)(F)F)c1Cl [B, reference compound] | 5 (Level 5: above 50% growth inhibition rate) | 7 (Level 7: above 70% growth inhibition rate) | 6 (Level 6: above 60% growth inhibition rate) | 0 | – | – | – | – | – | – | – | – | – | – | – | – | – | –
COCc1c(S(C)(=O)=O)ccc(C(=O)c2c(C)nn(C)c2OC(=O)c2cn(C)nc2C)c1Cl [Compound 26] | 10 | 10 | 10 | 0 | 1 (Level 1: above 1-10% growth inhibition rate) | 5 (Level 5: above 50% growth inhibition rate) | 0 | 7 (Level 7: above 70% growth inhibition rate) | 8 (Level 8: above 80% growth inhibition rate) | 10 | 10 | 8 (Level 8: above 80% growth inhibition rate) | 10 | – | – | – | – | –
C#CCOCc1c(S(C)(=O)=O)ccc(C(=O)c2c(C)nn(C)c2OC(=O)c2cn(C)nc2C)c1C [Compound 76] | – | – | – | – | 1 (Level 1: above 1-10% growth inhibition rate) | 3 (Level 3: above 20% growth inhibition rate) | 0 | 7 (Level 7: above 70% growth inhibition rate) | 7 (Level 7: above 70% growth inhibition rate) | 7 (Level 7: above 70% growth inhibition rate) | 10 | 10 | 10 | 10 | 10 | 10 | 0 | –
CCn1nc(C2CC2)c(C(=O)c2ccc(S(C)(=O)=O)c(COCC(F)F)c2Cl)c1OC(=O)c1cn(C)nc1C [Compound 90] | – | – | – | – | 1 (Level 1: above 1-10% growth inhibition rate) | 3 (Level 3: above 20% growth inhibition rate) | 0 | 7 (Level 7: above 70% growth inhibition rate) | 7 (Level 7: above 70% growth inhibition rate) | 10 | 10 | 10 | 10 | 10 | 10 | 10 | 0 | –
C#CCOCc1c(S(C)(=O)=O)ccc(C(=O)c2cnn(C(C)C)c2OC(=O)c2cn(C)nc2C)c1Cl [Compound 100] | – | – | – | – | 1 (Level 1: above 1-10% growth inhibition rate) | 5 (Level 5: above 50% growth inhibition rate) | 0 | 7 (Level 7: above 70% growth inhibition rate) | 7 (Level 7: above 70% growth inhibition rate) | 7 (Level 7: above 70% growth inhibition rate) | 10 | 10 | 10 | 8 (Level 8: above 80% growth inhibition rate) | 10 | 10 | 0 | –
C#CCOCc1c(S(C)(=O)=O)ccc(C(=O)c2c(CC)nn(CC)c2OC(=O)c2c(Cl)c(CC)nn2C)c1Cl [Compound 107] | – | – | – | – | – | – | – | – | – | – | – | – | – | 10 | 9 (Level 9: above 90% growth inhibition rate) | 10 | 10 | effect on crop, corn (level) ([2]; 60 g/ha): 0; effect on crop, rice (level) ([2]; 60 g/ha): 7 (Level 7: above 70% growth inhibition rate); effect on crop, wheat (level) ([2]; 60 g/ha): 0; weed control effect, Abutilon theophrasti (level) ([3]; 60 g/ha): 10; weed control effect, Bidens pilosa (level) ([3]; 60 g/ha): 8 (Level 8: above 80% growth inhibition rate); weed control effect, Digitaria sanguinalis (level) ([3]; 60 g/ha): 8 (Level 8: above 80% growth inhibition rate); weed control effect, Echinochloa crus-galli (level) ([3]; 60 g/ha): 10; weed control effect, Rorippa indica (level) ([3]; 60 g/ha): 10; weed control effect, Setaria viridis (level) ([3]; 60 g/ha): 10

— US10556888B2, “Pyrazole compounds or salts thereof, preparation methods therefor, herbicidal compositions and use thereof” (QINGDAO KINGAGROOT CHEMICAL COMPOUNDS CO., LTD, priority 2015, dated 2020)
